According to the supplement of paper PMC10307832:

Experiments:
Experiment in all cases: relative viability (nuclei count vs DMSO), 5 days (fraction); higher = more cells survive
201T = test system: 201T
In short: (§1)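 A single step with final 0.05% Triton X-100, 1% formaldehyde and 1 ug/ml Hoechst fixed the cells and stained nuclei 5 days after treatment. Lung cancer cell lines in 1536-well plates had been treated by pin tool the day after seeding with one drug alone or a fixed anchor-drug dose plus five library-drug doses (not always all listed) in √10 steps, and nuclei were counted on 4× images. Relative viability is the ratio of nuclei in treated wells to nuclei in vehicle wells, taken as the median of duplicate plates.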

BEN = test system: BEN
In short: as §1

EPLC-272H = test system: EPLC-272H
In short: as §1

HCC-15 = test system: HCC-15
In short: as §1

HCC-78 = test system: HCC-78
In short: as §1

LCLC-97TM1 = test system: LCLC-97TM1
In short: as §1

LU99A = test system: LU99A
In short: as §1

NCI-H1355 = test system: NCI-H1355
In short: as §1

NCI-H1395 = test system: NCI-H1395
In short: as §1

NCI-H2009 = test system: NCI-H2009
In short: as §1

NCI-H2085 = test system: NCI-H2085
In short: as §1

NCI-H2126 = test system: NCI-H2126
In short: as §1

NCI-H2228 = test system: NCI-H2228
In short: as §1

NCI-H2342 = test system: NCI-H2342
In short: as §1

NCI-H23 = test system: NCI-H23
In short: as §1

NCI-H2405 = test system: NCI-H2405
In short: as §1

NCI-H322M = test system: NCI-H322M
In short: as §1

NCI-H460 = test system: NCI-H460
In short: as §1

NCI-H647 = test system: NCI-H647
In short: as §1

NCI-H650 = test system: NCI-H650
In short: as §1

NCI-H661 = test system: NCI-H661
In short: as §1

NCI-H838 = test system: NCI-H838
In short: as §1

PC-14 = test system: PC-14
In short: as §1

## Cc1csc(=NC2CCCCC2)n1/N=C/c1ccc(O)c(O)c1O [MIM1] + Nc1nc2[nH]cc(CCc3ccc(C(=O)N[C@@H](CCC(=O)O)C(=O)O)cc3)c2c(=O)[nH]1 [Pemetrexed] (partner 0.2 µM)
201T; first compound 0.2 µM
  relative viability: 0.372
201T; first compound 0.6325 µM
  relative viability: 0.338
201T; first compound 2 µM
  relative viability: 0.38
201T; first compound 6.325 µM
  relative viability: 0.31
201T; first compound 20 µM
  relative viability: 0.318
BEN; first compound 0.2 µM
  relative viability: 0.792
BEN; first compound 0.6325 µM
  relative viability: 0.751
BEN; first compound 2 µM
  relative viability: 0.705
BEN; first compound 6.325 µM
  relative viability: 0.709
BEN; first compound 20 µM
  relative viability: 0.34
EPLC-272H; first compound 0.2 µM
  relative viability: 0.328
EPLC-272H; first compound 0.6325 µM
  relative viability: 0.372
EPLC-272H; first compound 2 µM
  relative viability: 0.27
EPLC-272H; first compound 6.325 µM
  relative viability: 0.157
EPLC-272H; first compound 20 µM
  relative viability: 0.166
HCC-15; first compound 0.2 µM
  relative viability: 0.217
HCC-15; first compound 0.6325 µM
  relative viability: 0.225
HCC-15; first compound 2 µM
  relative viability: 0.225
HCC-15; first compound 6.325 µM
  relative viability: 0.239
HCC-15; first compound 20 µM
  relative viability: 0.162
HCC-78; first compound 0.2 µM
  relative viability: 0.851
HCC-78; first compound 2 µM
  relative viability: 0.927
HCC-78; first compound 6.325 µM
  relative viability: 0.858
HCC-78; first compound 20 µM
  relative viability: 0.919
LCLC-97TM1; first compound 0.2 µM
  relative viability: 0.147
LCLC-97TM1; first compound 0.6325 µM
  relative viability: 0.142
LCLC-97TM1; first compound 2 µM
  relative viability: 0.167
LCLC-97TM1; first compound 6.325 µM
  relative viability: 0.172
LCLC-97TM1; first compound 20 µM
  relative viability: 0.054
LU99A; first compound 0.2 µM
  relative viability: 0.178
LU99A; first compound 0.6325 µM
  relative viability: 0.193
LU99A; first compound 2 µM
  relative viability: 0.175
LU99A; first compound 6.325 µM
  relative viability: 0.17
LU99A; first compound 20 µM
  relative viability: 0.16
NCI-H1355; first compound 0.2 µM
  relative viability: 1.05
NCI-H1355; first compound 0.6325 µM
  relative viability: 0.932
NCI-H1355; first compound 2 µM
  relative viability: 1.07
NCI-H1355; first compound 6.325 µM
  relative viability: 0.863
NCI-H1355; first compound 20 µM
  relative viability: 0.616
NCI-H1395; first compound 0.2 µM
  relative viability: 0.848
NCI-H1395; first compound 0.6325 µM
  relative viability: 0.743
NCI-H1395; first compound 2 µM
  relative viability: 0.8
NCI-H1395; first compound 6.325 µM
  relative viability: 0.697
NCI-H1395; first compound 20 µM
  relative viability: 0.341
NCI-H2009; first compound 0.2 µM
  relative viability: 1.03
NCI-H2009; first compound 0.6325 µM
  relative viability: 1.05
NCI-H2009; first compound 2 µM
  relative viability: 1.09
NCI-H2009; first compound 6.325 µM
  relative viability: 0.916
NCI-H2009; first compound 20 µM
  relative viability: 0.884
NCI-H2085; first compound 0.2 µM
  relative viability: 0.903
NCI-H2085; first compound 0.6325 µM
  relative viability: 0.873
NCI-H2085; first compound 2 µM
  relative viability: 0.885
NCI-H2085; first compound 6.325 µM
  relative viability: 0.777
NCI-H2085; first compound 20 µM
  relative viability: 0.833
NCI-H2126; first compound 0.2 µM
  relative viability: 0.643
NCI-H2126; first compound 0.6325 µM
  relative viability: 0.67
NCI-H2126; first compound 2 µM
  relative viability: 0.675
NCI-H2126; first compound 6.325 µM
  relative viability: 0.563
NCI-H2126; first compound 20 µM
  relative viability: 0.399
NCI-H2228; first compound 0.2 µM
  relative viability: 0.386
NCI-H2228; first compound 0.6325 µM
  relative viability: 0.345
NCI-H2228; first compound 2 µM
  relative viability: 0.347
NCI-H2228; first compound 6.325 µM
  relative viability: 0.168
NCI-H2228; first compound 20 µM
  relative viability: 0.152
NCI-H2342; first compound 0.2 µM
  relative viability: 0.719
NCI-H2342; first compound 0.6325 µM
  relative viability: 0.768
NCI-H2342; first compound 2 µM
  relative viability: 0.75
NCI-H2342; first compound 6.325 µM
  relative viability: 0.751
NCI-H2342; first compound 20 µM
  relative viability: 0.757
NCI-H23; first compound 0.2 µM
  relative viability: 0.667
NCI-H23; first compound 0.6325 µM
  relative viability: 0.469
NCI-H23; first compound 2 µM
  relative viability: 0.717
NCI-H23; first compound 6.325 µM
  relative viability: 0.5
NCI-H23; first compound 20 µM
  relative viability: 0.204
NCI-H2405; first compound 0.2 µM
  relative viability: 0.945
NCI-H2405; first compound 0.6325 µM
  relative viability: 0.98
NCI-H2405; first compound 2 µM
  relative viability: 1.17
NCI-H2405; first compound 6.325 µM
  relative viability: 0.752
NCI-H2405; first compound 20 µM
  relative viability: 0.584
NCI-H322M; first compound 0.2 µM
  relative viability: 0.614
NCI-H322M; first compound 0.6325 µM
  relative viability: 0.58
NCI-H322M; first compound 2 µM
  relative viability: 0.558
NCI-H322M; first compound 6.325 µM
  relative viability: 0.557
NCI-H322M; first compound 20 µM
  relative viability: 0.543
NCI-H460; first compound 0.2 µM
  relative viability: 0.0717
NCI-H460; first compound 0.6325 µM
  relative viability: 0.0675
NCI-H460; first compound 2 µM
  relative viability: 0.0683
NCI-H460; first compound 6.325 µM
  relative viability: 0.0681
NCI-H460; first compound 20 µM
  relative viability: 0.0657
NCI-H647; first compound 0.2 µM
  relative viability: 0.187
NCI-H647; first compound 0.6325 µM
  relative viability: 0.186
NCI-H647; first compound 2 µM
  relative viability: 0.178
NCI-H647; first compound 6.325 µM
  relative viability: 0.162
NCI-H647; first compound 20 µM
  relative viability: 0.117
NCI-H650; first compound 0.2 µM
  relative viability: 1.07
NCI-H650; first compound 0.6325 µM
  relative viability: 1
NCI-H650; first compound 2 µM
  relative viability: 0.934
NCI-H650; first compound 6.325 µM
  relative viability: 0.89
NCI-H650; first compound 20 µM
  relative viability: 0.282
NCI-H661; first compound 0.2 µM
  relative viability: 0.676
NCI-H661; first compound 0.6325 µM
  relative viability: 0.908
NCI-H661; first compound 2 µM
  relative viability: 0.975
NCI-H661; first compound 6.325 µM
  relative viability: 0.651
NCI-H661; first compound 20 µM
  relative viability: 0.562
NCI-H838; first compound 0.2 µM
  relative viability: 0.244
NCI-H838; first compound 0.6325 µM
  relative viability: 0.376
NCI-H838; first compound 2 µM
  relative viability: 0.243
NCI-H838; first compound 6.325 µM
  relative viability: 0.269
NCI-H838; first compound 20 µM
  relative viability: 0.226
PC-14; first compound 0.2 µM
  relative viability: 0.137
PC-14; first compound 0.6325 µM
  relative viability: 0.124
PC-14; first compound 2 µM
  relative viability: 0.151
PC-14; first compound 6.325 µM
  relative viability: 0.156
PC-14; first compound 20 µM
  relative viability: 0.111
